These results are taken from ChEMBL document CHEMBL3045518, “Synthesis of novel 3-[5-ethyl-2-(2-phenoxy-ethyl)-pyridin]-5-substituted isoxazoline libraries via 1,3-dipolar cycloaddition and evaluation of antimicrobial activities” (2006).

Values after ≈ are worked out from the molar mass of the structure shown.

Holding throughout (format): functional
The test system of experiment [1] is Aspergillus niger. Kind of experiment: Antifungal activity against Aspergillus niger after 48 hr by microdilution method.
The subject of experiment [2] is Pseudomonas fluorescens. Briefly: Antibacterial activity against Pseudomonas fluorescens at 25 ug/disk after 24 hr by disk diffusion method. Conditions: read-out: DIZ. On the technique in general: A growth-free zone around the sample is the usual read-out of agar diffusion tests.
Experiment [3] deals with Fusarium verticillioides. Briefly: Antifungal activity against Fusarium verticillioides after 48 hr by microdilution method. Background: Broth dilution looks for growth in wells or tubes with falling amounts of substance.
The test system of experiment [4] is Penicillium sp. Briefly: Antifungal activity against Penicillium sp. at 25 ug/disk after 48 hr by disk diffusion method. As to conditions: read-out: DIZ.
For experiment [5], the system named is Bacillus subtilis. Briefly: Antibacterial activity against Bacillus subtilis by microdilution method.
Experiment [6] has as its system Aspergillus flavus. Kind of experiment: Antifungal activity against Aspergillus flavus at 25 ug/disk after 48 hr by disk diffusion method. As to conditions: read-out: DIZ.
In experiment [7] the test system is Escherichia coli. Briefly: Antibacterial activity against Escherichia coli by microdilution method.
For experiment [8], the system named is Xanthomonas oryzae. Briefly: Antibacterial activity against Xanthomonas oryzae at 25 ug/disk after 24 hr by disk diffusion method. As to conditions: read-out: DIZ.
Experiment [9] relates to Fusarium verticillioides. Kind of experiment: Antifungal activity against Fusarium verticillioides at 25 ug/disk after 48 hr by disk diffusion method. As to conditions: read-out: DIZ.
The test system of experiment [10] is Aspergillus flavus. Briefly: Antifungal activity against Aspergillus flavus after 48 hr by microdilution method.
Experiment [11] has as its system Aspergillus niger. Kind of experiment: Antifungal activity against Aspergillus niger at 25 ug/disk after 48 hr by disk diffusion method. Conditions: read-out: DIZ.
In experiment [12] the test system is Xanthomonas euvesicatoria pv. sesami. Briefly: Antibacterial activity against Xanthomonas campestris pv. sesami at 25 ug/disk after 24 hr by disk diffusion method. Conditions: read-out: DIZ.
Experiment [13] has as its system Penicillium sp. Briefly: Antifungal activity against Penicillium sp. after 48 hr by microdilution method.
Experiment [14] deals with Xanthomonas euvesicatoria pv. sesami. Briefly: Antibacterial activity against Xanthomonas campestris pv. sesami by microdilution method.
The subject of experiment [15] is Trichoderma. Kind of experiment: Antifungal activity against Trichoderma sp. after 48 hr by microdilution method.
Experiment [16] deals with Bacillus subtilis. Briefly: Antibacterial activity against Bacillus subtilis at 25 ug/disk after 24 hr by disk diffusion method. As to conditions: read-out: DIZ.
Experiment [17] has as its system Pseudomonas fluorescens. Briefly: Antibacterial activity against Pseudomonas fluorescens by microdilution method.
The subject of experiment [18] is Trichoderma. Kind of experiment: Antifungal activity against Trichoderma sp. at 25 ug/disk after 48 hr by disk diffusion method. As to conditions: read-out: DIZ.
The subject of experiment [19] is Escherichia coli. Briefly: Antibacterial activity against Escherichia coli at 25 ug/disk after 24 hr by disk diffusion method. As to conditions: read-out: DIZ.
Experiment [20] relates to Fusarium oxysporum. Briefly: Antifungal activity against Fusarium oxysporum at 25 ug/disk after 48 hr by disk diffusion method. As to conditions: read-out: DIZ.
Experiment [21] deals with Xanthomonas oryzae. Briefly: Antibacterial activity against Xanthomonas oryzae by microdilution method.
Experiment [22] relates to Fusarium oxysporum. Kind of experiment: Antifungal activity against Fusarium oxysporum after 48 hr by microdilution method.

As a reminder, the MIC is the smallest concentration in the dilution series that meets the test's criterion for growth inhibition. Lower therefore signals inhibition by little substance. As to `CCOC(=O)C1CC(c2ccc(OCCc3ccc(CC)cn3)cc2)=NO1` (stereo not given), the MIC is 17 µg/mL (≈ 46.1 µM) against Aspergillus niger [1]; 12 µg/mL (≈ 32.6 µM) against Fusarium verticillioides [3]; 20 µg/mL (≈ 54.3 µM) with Bacillus subtilis [5]; 16 µg/mL (≈ 43.4 µM) with Escherichia coli [7]; 18 µg/mL (≈ 48.9 µM) against Aspergillus flavus [10]; 11 µg/mL (≈ 29.9 µM) in the experiment with Penicillium sp. [13]. The MIC in [14] came out at 14 µg/mL (≈ 38 µM); against Trichoderma [15], 14 µg/mL (≈ 38 µM); with Pseudomonas fluorescens [17] it was 16 µg/mL (≈ 43.4 µM); in the experiment on Xanthomonas oryzae [21] it was 16 µg/mL (≈ 43.4 µM); against Fusarium oxysporum [22], 14 µg/mL (≈ 38 µM). In addition, the zone of inhibition at 25 µg/disc in the experiment on Pseudomonas fluorescens [2] is 13 mm; with Penicillium sp. [4], 8 mm; with Aspergillus flavus [6] it was 8 mm; with Xanthomonas oryzae [8] it was 9 mm; in the experiment with Fusarium verticillioides [9], 9 mm; with Aspergillus niger [11], 6 mm. For the same molecule, the zone of inhibition at 25 µg/disc in [12] is 9 mm; in the experiment on Bacillus subtilis [16], 11 mm; in the experiment with Trichoderma [18], 12 mm; with Escherichia coli [19], 12 mm; with Fusarium oxysporum [20] it was 11 mm.
As for `CCc1ccc(CCOc2ccc(C3=NOC(Cc4ccc(OC)c(OC)c4)C3)cc2)nc1` (stereo not given), the MIC against Aspergillus niger [1] amounted to 18 µg/mL (≈ 40.3 µM); in the experiment on Fusarium verticillioides [3], 11 µg/mL (≈ 24.6 µM); with Bacillus subtilis [5], 20 µg/mL (≈ 44.8 µM); with Escherichia coli [7] it was 15 µg/mL (≈ 33.6 µM); in the experiment with Aspergillus flavus [10] it was 17 µg/mL (≈ 38.1 µM); in the experiment with Penicillium sp. [13], 12 µg/mL (≈ 26.9 µM). Besides, the MIC in [14] was 11 µg/mL (≈ 24.6 µM); in the experiment on Trichoderma [15], 15 µg/mL (≈ 33.6 µM); against Pseudomonas fluorescens [17], 15 µg/mL (≈ 33.6 µM); with Xanthomonas oryzae [21], 15 µg/mL (≈ 33.6 µM); in the experiment on Fusarium oxysporum [22] it was 13 µg/mL (≈ 29.1 µM). Besides, the zone of inhibition at 25 µg/disc was 14 mm in the experiment with Pseudomonas fluorescens [2]; 8 mm with Penicillium sp. [4]; 7 mm in the experiment with Aspergillus flavus [6]; 9 mm with Xanthomonas oryzae [8]; 10 mm with Fusarium verticillioides [9]; 6 mm in the experiment with Aspergillus niger [11]. Besides, the zone of inhibition at 25 µg/disc is 10 mm in experiment [12]; 14 mm in the experiment with Bacillus subtilis [16]; 13 mm with Trichoderma [18]; 15 mm in the experiment with Escherichia coli [19]; 12 mm in the experiment with Fusarium oxysporum [20].
In the case of `CCc1ccc(CCOc2ccc(C3=NOC(C(=O)OC)C3)cc2)nc1` (stereo not given), the MIC turned out to be 22 µg/mL (≈ 62.1 µM) against Aspergillus niger [1]; 22 µg/mL (≈ 62.1 µM) in the experiment with Fusarium verticillioides [3]; 27 µg/mL (≈ 76.2 µM) with Bacillus subtilis [5]; 24 µg/mL (≈ 67.7 µM) with Escherichia coli [7]; 24 µg/mL (≈ 67.7 µM) against Aspergillus flavus [10]; 24 µg/mL (≈ 67.7 µM) in the experiment with Penicillium sp. [13]. The MIC in experiment [14] amounted to 22 µg/mL (≈ 62.1 µM); in the experiment on Trichoderma [15], 20 µg/mL (≈ 56.4 µM); against Pseudomonas fluorescens [17], 22 µg/mL (≈ 62.1 µM); in the experiment with Xanthomonas oryzae [21] it was 27 µg/mL (≈ 76.2 µM); in the experiment with Fusarium oxysporum [22], 20 µg/mL (≈ 56.4 µM). Also, the zone of inhibition at 25 µg/disc amounted to 5 mm with Pseudomonas fluorescens [2]; 2 mm in the experiment on Penicillium sp. [4]; 4 mm with Aspergillus flavus [6]; 3 mm in the experiment on Xanthomonas oryzae [8]; 3 mm in the experiment with Fusarium verticillioides [9]; 3 mm in the experiment with Aspergillus niger [11]. The zone of inhibition at 25 µg/disc in experiment [12] worked out at 3 mm; in the experiment with Bacillus subtilis [16] it was 5 mm; with Trichoderma [18], 5 mm; with Escherichia coli [19], 6 mm; in the experiment on Fusarium oxysporum [20], 4 mm.
As to `CCc1ccc(CCOc2ccc(C3=NOC(c4ccccc4)C3)cc2)nc1` (stereo not given), the MIC in the experiment with Aspergillus niger [1] turned out to be 22 µg/mL (≈ 59.1 µM); with Fusarium verticillioides [3], 20 µg/mL (≈ 53.7 µM); against Bacillus subtilis [5], 27 µg/mL (≈ 72.5 µM); against Escherichia coli [7] it was 28 µg/mL (≈ 75.2 µM); in the experiment on Aspergillus flavus [10], 24 µg/mL (≈ 64.4 µM); in the experiment with Penicillium sp. [13], 23 µg/mL (≈ 61.8 µM). Also, the MIC in experiment [14] was 27 µg/mL (≈ 72.5 µM); against Trichoderma [15], 20 µg/mL (≈ 53.7 µM); in the experiment on Pseudomonas fluorescens [17] it was 26 µg/mL (≈ 69.8 µM); with Xanthomonas oryzae [21], 25 µg/mL (≈ 67.1 µM); in the experiment on Fusarium oxysporum [22], 21 µg/mL (≈ 56.4 µM). Further, the zone of inhibition at 25 µg/disc in the experiment with Pseudomonas fluorescens [2] stood at 6 mm; in the experiment on Penicillium sp. [4] it was 3 mm; in the experiment on Aspergillus flavus [6], 4 mm; in the experiment on Xanthomonas oryzae [8], 4 mm; with Fusarium verticillioides [9], 3 mm; with Aspergillus niger [11], 3 mm. Besides, the zone of inhibition at 25 µg/disc in [12] was 4 mm; in the experiment on Bacillus subtilis [16], 5 mm; in the experiment on Trichoderma [18] it was 6 mm; in the experiment with Escherichia coli [19], 6 mm; in the experiment on Fusarium oxysporum [20], 4 mm.
In the case of `CCc1ccc(CCOc2ccc(C3=NOC(C#N)C3)cc2)nc1` (stereo not given), the MIC in the experiment on Aspergillus niger [1] was 20 µg/mL (≈ 62.2 µM); against Fusarium verticillioides [3], 18 µg/mL (≈ 56 µM); with Bacillus subtilis [5], 27 µg/mL (≈ 84 µM); against Escherichia coli [7] it was 21 µg/mL (≈ 65.3 µM); in the experiment on Aspergillus flavus [10], 21 µg/mL (≈ 65.3 µM); against Penicillium sp. [13], 20 µg/mL (≈ 62.2 µM). The MIC amounted to 20 µg/mL (≈ 62.2 µM) in experiment [14]; 20 µg/mL (≈ 62.2 µM) against Trichoderma [15]; 23 µg/mL (≈ 71.6 µM) against Pseudomonas fluorescens [17]; 22 µg/mL (≈ 68.5 µM) in the experiment with Xanthomonas oryzae [21]; 19 µg/mL (≈ 59.1 µM) against Fusarium oxysporum [22]. For the same molecule, the zone of inhibition at 25 µg/disc with Pseudomonas fluorescens [2] was determined as 6 mm; with Penicillium sp. [4] it was 2 mm; in the experiment on Aspergillus flavus [6] it was 3 mm; in the experiment on Xanthomonas oryzae [8], 4 mm; in the experiment with Fusarium verticillioides [9], 10 mm; in the experiment with Aspergillus niger [11], 2 mm. Besides, the zone of inhibition at 25 µg/disc in experiment [12] came out at 5 mm; in the experiment with Bacillus subtilis [16], 7 mm; in the experiment with Trichoderma [18], 4 mm; in the experiment on Escherichia coli [19] it was 7 mm; in the experiment on Fusarium oxysporum [20], 5 mm.
